Active and inactive are the calls of the source. The rule behind the calls is not given here.
Tests used:
Mus musculus [1] = test: Antiepileptic activity in CF1 mouse assessed as inhibition of maximal electroshock-induced seizures at 30 mg/kg, ip after 0.5 hrs; type: functional, organism-based; design: dose 30 mg/kg
Mus musculus [2] = test: Antiepileptic activity in CF1 mouse assessed as inhibition of maximal electroshock-induced seizures at 100 mg/kg, ip after 0.5 hrs; type: functional, organism-based; design: dose 100 mg/kg
Mus musculus [3] = test: Antiepileptic activity in CF1 mouse assessed as inhibition of maximal electroshock-induced seizures at 300 mg/kg, ip after 0.5 hrs; type: functional, organism-based; design: dose 300 mg/kg
Mus musculus [4] = test: Antiepileptic activity in CF1 mouse assessed as inhibition of maximal electroshock-induced seizures at 30 mg/kg, ip after 4 hrs; type: functional, organism-based; design: dose 30 mg/kg
Mus musculus [5] = test: Antiepileptic activity in CF1 mouse assessed as inhibition of maximal electroshock-induced seizures at 100 mg/kg, ip after 4 hrs; type: functional, organism-based; design: dose 100 mg/kg
Mus musculus [6] = test: Antiepileptic activity in CF1 mouse assessed as inhibition of maximal electroshock-induced seizures at 300 mg/kg, ip after 4 hrs; type: functional, organism-based; design: dose 300 mg/kg
Mus musculus [7] = test: Antiepileptic activity in CF1 mouse assessed as inhibition of subcutaneous pentylenetetrazole-induced seizures at 30 mg/kg, ip after 0.5 hrs; type: functional, organism-based; design: dose 30 mg/kg
Mus musculus [8] = test: Antiepileptic activity in CF1 mouse assessed as inhibition of subcutaneous pentylenetetrazole-induced seizures at 100 mg/kg, ip after 0.5 hrs; type: functional, organism-based; design: dose 100 mg/kg
Mus musculus [9] = test: Antiepileptic activity in CF1 mouse assessed as inhibition of subcutaneous pentylenetetrazole-induced seizures at 300 mg/kg, ip after 0.5 hrs; type: functional, organism-based; design: dose 300 mg/kg
Mus musculus [10] = test: Antiepileptic activity in CF1 mouse assessed as inhibition of subcutaneous pentylenetetrazole-induced seizures at 30 mg/kg, ip after 4 hrs; type: functional, organism-based; design: dose 30 mg/kg
Mus musculus [11] = test: Antiepileptic activity in CF1 mouse assessed as inhibition of subcutaneous pentylenetetrazole-induced seizures at 100 mg/kg, ip after 4 hrs; type: functional, organism-based; design: dose 100 mg/kg
Mus musculus [12] = test: Antiepileptic activity in CF1 mouse assessed as inhibition of subcutaneous pentylenetetrazole-induced seizures at 300 mg/kg, ip after 4 hrs; type: functional, organism-based; design: dose 300 mg/kg
Mus musculus [13] = test: Neurotoxicity in CF1 mouse assessed as protection against motor impairment at 30 mg/kg, ip after 0.5 hrs by rotarod test; type: functional, organism-based; design: dose 30 mg/kg
Mus musculus [14] = test: Neurotoxicity in CF1 mouse assessed as protection against motor impairment at 100 mg/kg, ip after 0.5 hrs by rotarod test; type: functional, organism-based; design: dose 100 mg/kg
Mus musculus [15] = test: Neurotoxicity in CF1 mouse assessed as protection against motor impairment at 300 mg/kg, ip after 0.5 hrs by rotarod test; type: functional, organism-based; design: dose 300 mg/kg
Mus musculus [16] = test: Neurotoxicity in CF1 mouse assessed as protection against motor impairment at 30 mg/kg, ip after 4 hrs by rotarod test; type: functional, organism-based; design: dose 30 mg/kg
Mus musculus [17] = test: Neurotoxicity in CF1 mouse assessed as protection against motor impairment at 100 mg/kg, ip after 4 hrs by rotarod test; type: functional, organism-based; design: dose 100 mg/kg
Mus musculus [18] = test: Neurotoxicity in CF1 mouse assessed as protection against motor impairment at 300 mg/kg, ip after 4 hrs by rotarod test; type: functional, organism-based; design: dose 300 mg/kg
Rattus norvegicus [19] = test: Antiallodynic activity in rat assessed as protection against spinal nerve ligation-induced neuropathic pain at 80 mg/kg, ip after 30 mins; type: functional, organism-based; design: dose 80 mg/kg
Rattus norvegicus [20] = test: Antiallodynic activity in rat assessed as protection against spinal nerve ligation-induced neuropathic pain at 80 mg/kg, ip after 60 mins; type: functional, organism-based; design: dose 80 mg/kg
Rattus norvegicus [21] = test: Antiallodynic activity in rat assessed as protection against spinal nerve ligation-induced neuropathic pain at 80 mg/kg, ip after 120 mins; type: functional, organism-based; design: dose 80 mg/kg
Rattus norvegicus [22] = test: Antiallodynic activity in rat assessed as protection against spinal nerve ligation-induced neuropathic pain at 80 mg/kg, ip after 180 mins; type: functional, organism-based; design: dose 80 mg/kg
Rattus norvegicus [23] = test: Antiallodynic activity in rat assessed as protection against spinal nerve ligation-induced neuropathic pain at 80 mg/kg, ip after 240 mins; type: functional, organism-based; design: dose 80 mg/kg
Rattus norvegicus [24] = test: Anticonvulsant activity in ip dosed albino Sprague-Dawley rat assessed as protection against pilocarpine-induced seizure; type: functional
Rattus norvegicus [25] = test: Antiallodynic activity in ip dosed rat assessed as protection against spinal nerve ligation-induced neuropathic pain; type: functional
Mus musculus [26] = test: Antiepileptic activity in ip dosed CF1 mouse assessed as inhibition of maximal electroshock-induced seizures; type: functional
Rattus norvegicus [27] = species: Rattus norvegicus; test: Ratio of ED50 for antiallodynic activity in rat assessed as protection against spinal nerve ligation-induced neuropathic pain to ED50 for antiepileptic activity in rat by maximal electroshock-induced seizures assay; type: functional
Rattus norvegicus [28] = test: Anticonvulsant activity in albino Sprague-Dawley rat assessed as protection against pilocarpine-induced seizure at 200 mg/kg, ip; type: functional, organism-based; design: dose 200 mg/kg
Rattus norvegicus [29] = test: Anticonvulsant activity in albino Sprague-Dawley rat assessed as protection against pilocarpine-induced seizure at 450 mg/kg, ip; type: functional, organism-based; design: dose 450 mg/kg
Rattus norvegicus [30] = test: Anticonvulsant activity in albino Sprague-Dawley rat assessed as protection against pilocarpine-induced seizure at 600 mg/kg, ip treated after 30 mins of pilcarpine challenge; type: functional, organism-based; design: dose 600 mg/kg

SMILES | Activity (Mus musculus [1]) | Activity (Mus musculus [2]) | Activity (Mus musculus [3]) | Activity (Mus musculus [4]) | Activity (Mus musculus [5]) | Activity (Mus musculus [6]) | Activity (Mus musculus [7]) | Activity (Mus musculus [8]) | Activity (Mus musculus [9]) | Activity (Mus musculus [10]) | Activity (Mus musculus [11]) | Activity (Mus musculus [12]) | Activity (Mus musculus [13]) | Activity (Mus musculus [14]) | Activity (Mus musculus [15]) | Activity (Mus musculus [16]) | Activity (Mus musculus [17]) | Activity (Mus musculus [18]) | Activity (Rattus norvegicus [19]) | Activity (Rattus norvegicus [20]) | also measured
CCCC(C)C(N)=O (centres undefined) | inactive | inactive | inactive | inactive | inactive | inactive | inactive | inactive | inactive | inactive | inactive | inactive | inactive | inactive | inactive | inactive | inactive | inactive | inactive | inactive | 
CCC(C)C(N)=O (centres undefined) | inactive | inactive | inactive | inactive | inactive | inactive | inactive | inactive | inactive | inactive | inactive | inactive | inactive | inactive | inactive | inactive | inactive | inactive | inactive | inactive | Activity (Rattus norvegicus [21]): inactive
CCCCC(CC)C(=O)NC(N)=O (centres undefined) | inactive |  | Active | inactive | inactive | inactive | inactive | inactive | Active | inactive | inactive | inactive | inactive | inactive | Active | inactive | inactive | inactive | inactive | inactive | Activity (Rattus norvegicus [22]): inactive; Activity (Rattus norvegicus [23]): inactive; ED50 (Rattus norvegicus [24]): 247 mg/kg; ED97 (Rattus norvegicus [24]): 439 mg/kg; Activity (Rattus norvegicus [21]): inactive
CCCC(CCC)C(N)=O [VALPROMIDE] |  |  |  |  |  |  |  |  |  |  |  |  |  |  |  |  |  |  |  |  | ED50 (Rattus norvegicus [25]): 61 mg/kg; ED50 (Mus musculus [26]): 32 mg/kg; ratio (Rattus norvegicus [27]): 0.52
CC(C)(C)CC(N)=O | inactive | inactive | inactive | inactive | inactive | inactive | inactive | inactive | inactive | inactive |  | inactive | inactive | inactive |  | inactive | inactive |  | inactive | inactive | Activity (Rattus norvegicus [22]): inactive; Activity (Rattus norvegicus [23]): inactive; Activity (Rattus norvegicus [21]): inactive
CCC(C(N)=O)C(C)(C)C (centres undefined) | inactive | inactive | inactive | inactive | inactive | Active | inactive | inactive | Active | inactive | inactive | inactive | inactive | inactive |  | inactive | inactive | inactive |  |  | Activity (Rattus norvegicus [23]): inactive; Activity (Rattus norvegicus [28]): Active; ED50 (Rattus norvegicus [24]): 257 mg/kg; ED97 (Rattus norvegicus [24]): 451 mg/kg
CC(C)C(C)C(N)=O (centres undefined) | inactive | inactive | inactive | inactive | inactive | inactive | inactive | inactive | inactive | inactive | inactive | inactive | inactive | inactive | inactive | inactive | inactive | inactive |  |  | Activity (Rattus norvegicus [29]): Active; Activity (Rattus norvegicus [30]): Active

From ChEMBL document CHEMBL1153701, “Synthesis and evaluation of antiallodynic and anticonvulsant activity of novel amide and urea derivatives of valproic acid analogues” (2009)
